Reference: patent US20230129745A1, “COMPOUNDS, COMPOSITIONS, AND METHODS TO TREAT METABOLIC DISEASE” (Board of Supervisors of Louisiana State University and …, priority 2020, published 2023)

Tests used:
[1] = test system: 3T3-L1 adipocytes; conditions: published data; cited from earlier work
[2] = biological target: T1, PPARγ (Homo sapiens, UniProt P37231); conditions: Choi et al. 2011; cited from earlier work
T1 construct: NIH-3T3 cells stably transfected with full-length PPARγ (A); expressed in transfected cells
T1 sequence (P37231 1-505): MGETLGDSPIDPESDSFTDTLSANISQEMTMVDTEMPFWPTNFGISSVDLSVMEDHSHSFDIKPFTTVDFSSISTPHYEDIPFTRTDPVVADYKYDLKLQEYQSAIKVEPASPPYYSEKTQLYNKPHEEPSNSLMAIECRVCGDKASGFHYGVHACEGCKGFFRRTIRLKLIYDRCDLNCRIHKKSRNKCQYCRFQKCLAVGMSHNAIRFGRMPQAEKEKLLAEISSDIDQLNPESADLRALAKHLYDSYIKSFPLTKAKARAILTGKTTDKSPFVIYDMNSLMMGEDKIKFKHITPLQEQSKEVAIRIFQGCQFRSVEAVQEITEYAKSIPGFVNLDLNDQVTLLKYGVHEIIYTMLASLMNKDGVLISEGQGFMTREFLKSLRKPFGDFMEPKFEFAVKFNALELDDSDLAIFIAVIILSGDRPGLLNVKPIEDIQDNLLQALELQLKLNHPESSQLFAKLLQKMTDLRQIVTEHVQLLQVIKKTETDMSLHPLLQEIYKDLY

[3] = test system: 3T3-L1 adipocytes; experiment: TNFα-induced lipolysis (glycerol release) in 3T3-L1 adipocytes; type: cell-based, murine; conditions: 2.5, 10, or 25 μM, 3-day pretreatment; 0.75 nM TNFα
Protocol: Fully differentiated 3T3-L1 adipocytes pretreated for three days with 50 μg/ml SCO or varying doses of test compounds (2.5, 10, or 25 μM), then overnight with 0.75 nM TFNα (or vehicle). After 4 hours, the conditioned medium was collected and assayed for glycerol. Data was expressed as fold-change vs TNFα-only treatment. Data from no-TNFα controls and each test compound were analyzed by one-way ANOVA. **P<0.01, ****P<0.0001 vs TNFα-only condition.
Cell Culture and Treatments. 3T3-L1 preadipocytes (murine) were cultured as previously described,^3 and induced to differentiate two days after reaching confluence. For experiments using mature adipocytes, cells were induced with a standard methylxanthine-dexamethasone-insulin (MDI) cocktail, which contains 0.5 mM isobutylmethylxanthine (IBMX), 1 μM dexamethasone (DEX), and 1.72 μM insulin in high-glucose Dulbecco's Modified Eagle Medium (DMEM) supplemented with 10% fetal bovine serum (FBS). IBMX, DEX, insulin, and DMEM were obtained from Sigma-Aldrich (St. Louis, Mo.), and FBS from Hyclone (GE Healthcare Life Sciences, Logan, Utah). […]
FABP4 secretion and lipolysis assays. […] Conditioned media samples were collected after four hours and analyzed for FAPB4 content by immunoblotting. Lipolysis was also assessed by measuring glycerol concentrations in the samples, using free glycerol reagent from Sigma-Aldrich.

[4] = LC-MS of serum from mice fed HFD containing 1% Artemisia scoparia extract; type: in vivo; conditions: archived serum, SCO feeding study in high fat-fed mice, after 4-hour fast
Protocol: Serum samples of control or SCO-treated mice were analyzed directly without enzyme hydrolysis after protein precipitation (top 2 panels) or after glucuronidase enzyme digestion followed by solvent partitioning (lower 2 panels). Chromatograms were created using selected ion monitoring of m/z 315.159-315.161 specific to capillartemisins. In addition to specific mass, the identity of capillartemisin A was confirmed using our in-house library of spectral data that was confirmed using NMR spectroscopy.
To conduct in vivo assessments of SP's bioavailability or pharmacokinetics, we sent six-year-old archived serum samples from our last SCO feeding study in high fat-fed mice for analysis. These samples were collected at the time of sacrifice after a 4-hour fast, in conditions that were not designed for detection of SCO compounds in the circulation. […] However, capillartemisin A was detected (FIG. 12).

[5] = test system: 3T3-L1 cells; experiment: Lipid accumulation (Oil Red O) in differentiating 3T3-L1 cells; type: cell-based, murine; conditions: for dose dependence of lipid accumulation activity / lipid accumulation (Oil Red O staining): 2.5, 10, and 25 μM; for lipid accumulation (Oil Red O staining): relative to DMSO; for adipogenesis (Oil Red O and AdipoQ, Fabp4, Pparγ expression): 2.5, 10, or 25 μM, half-strength MDI, FIG. 27
Protocol: Cells were then either fixed and stained with Oil Red O (4 days post-differentiation) (panel A), or harvested (3 days post differentiation) for RNA isolation and gene expression analysis of adiponectin (AdipoQ), fatty acid binding protein 4 (Fabp4), or Ppary (panels B-D). All treatments compared to their respective DMSO controls. The Effects of SCO and ROSI were analyzed by t-test, while the effects of individual test compounds were analyzed by one-way ANOVA. *[…], **P<0.01, ***P<0.001, ****P<0.0001 vs DMSO controls.
Cell Culture and Treatments. 3T3-L1 preadipocytes (murine) were cultured as previously described,^3 and induced to differentiate two days after reaching confluence. For experiments using mature adipocytes, cells were induced with a standard methylxanthine-dexamethasone-insulin (MDI) cocktail, which contains 0.5 mM isobutylmethylxanthine (IBMX), 1 μM dexamethasone (DEX), and 1.72 μM insulin in high-glucose Dulbecco's Modified Eagle Medium (DMEM) supplemented with 10% fetal bovine serum (FBS). IBMX, DEX, insulin, and DMEM were obtained from Sigma-Aldrich (St. Louis, Mo.), and FBS from Hyclone (GE Healthcare Life Sciences, Logan, Utah). For differentiation experiments, cells were induced with half-strength MDI cocktail […]. In both cases, cells were fed with high-glucose DMEM+10% FBS with 0.43 μM insulin three days following MDI induction. Test compounds were dissolved in dimethylsulfoxide (DMSO) as 1000× stocks. For differentiation experiments, cells were treated with the compounds (or DMSO vehicle as a control) at the time of induction and at the first feeding there after (3 days post-MDI). For lipolysis experiments on mature adipocytes, cells were fed with high-glucose DMEM+10% FBS 6 days after MDI and treated with test compounds or DMSO vehicle for three days. On the third day cells were also treated overnight with 0.75 nM tumor necrosis factor alpha (TNFα) (Life Technologies, Carlsbad, Calif.) or its vehicle [0.1% bovine serum albumin (BSA) in phosphate buffered saline (PBS)]. The following morning, the culture medium was replaced with lipolysis incubation medium (low-glucose DMEM+2% BSA) and 0.75 nM TNFα(or vehicle). After 4 hours, conditioned medium and cell lysates were collected.
Lipid Accumulation Assay. Five days after MDI induction, cell monolayers were fixed in 10% neutral buffered formalin (ThermoFisher, Waltham, Mass.) and stained with the neutral lipid stain, Oil Red O (ORO). Plates were scanned to generate images of staining. The ORO was then eluted in isopropyl alcohol, and absorbance of eluates was measured at 520 nm for quantitation.

[6] = 14 days of treatment, db/db mice; cited from earlier work
[7] = biological target: T2, caspase 1 (Mus musculus, UniProt P29452); conditions: literature; cited from earlier work
T2 sequence (P29452 119-402): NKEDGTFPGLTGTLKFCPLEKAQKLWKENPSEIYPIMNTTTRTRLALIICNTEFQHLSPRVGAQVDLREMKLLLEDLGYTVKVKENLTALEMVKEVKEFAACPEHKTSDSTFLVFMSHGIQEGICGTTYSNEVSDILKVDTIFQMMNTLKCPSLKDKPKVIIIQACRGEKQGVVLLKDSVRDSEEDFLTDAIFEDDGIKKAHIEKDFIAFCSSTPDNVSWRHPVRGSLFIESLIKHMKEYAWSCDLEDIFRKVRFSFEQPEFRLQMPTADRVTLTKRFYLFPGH

SMILES	adipogenesis / adipocyte differentiation [1]	inhibition of TNFα-induced lipolysis (glycerol release) [3]	detection in serum (LC-MS) [4]	dose dependence of lipid accumulation activity [5]	lipid accumulation (Oil Red O staining) [5]	adipogenesis (Oil Red O and AdipoQ, Fabp4, Pparγ expression) [5]	further results
CC(C)=CCc1cc(/C=C/C(=O)O)cc(CC=C(C)C)c1O [Artepillin C]	enhance adipogenesis	–	–	–	–	–	PPARγ activation [2]: activate
CC(C)=CCc1cc(/C=C/C(=O)O)cc(C/C=C(\C)CO)c1O [Compound 2, capillartemisin A]	–	not able to significantly mitigate	detected	active in a dose-dependent manner	enhanced lipid accumulation	promote adipogenesis	–
CN(CCOc1ccc(CC2SC(=O)NC2=O)cc1)c1ccccn1 (stereo not drawn) [rosiglitazone]	–	–	–	–	–	–	hematocrit [6]: decreases hematocrit by as much as three percentage points
CC(C)=CCc1cc(/C=C/C(=O)O)cc(C/C=C(/C)CO)c1O [Compound 3, capillartemisin B]	–	not able to significantly mitigate	did not detect	best activity over the tested dose range	enhanced lipid accumulation	promote adipogenesis	–
O=C(/C=C/c1ccc(O)c(O)c1)O[C@@H]1CC(O)(C(=O)O)C[C@@H](OC(=O)/C=C/c2ccc(O)c(O)c2)C1O (stereo partly drawn) [DEQA, 3,5-dicaffeoyl-epi-quinic acid]	do not promote adipogenesis	–	–	–	–	–	caspase 1 activity [7]: reduce
